Results on six compounds are retold here after patent US20230167155A1, “COMPOSITIONS AND METHODS” (KING'S COLLEGE LONDON, priority 2020, published 2023).

Data set [1] concerns macrophages. The experiment in a line: Sensitivity of macrophages to IFNγ (iNOS expression, flow cytometry). It counts as cell-based. Particulars: 100 microM; for enhanced sensitivity of macrophages to IFNγ induced by thrombin (iNOS): thrombin 50 iu. As for the experimental part:
In more detail, mechanistic insights: direct effect on monocyte/macrophage phenotype. Sensitivity of macrophages to IFNγ, as assessed by the proportion that express iNOS after stimulation.
The enhanced sensitivity to IFNγ induced by thrombin is inhibited by a PAR-1 antagonist—this is via expression of ABCA1 and membrane lipid rafts. […] BMM purified cells cultured in MCSF for 5 days. Cells then removed for 24 hours and incubated with thrombin (50 units) (if an antagonist or 3-mercaptopropionyl-F-Cha-Cha-RKPNDK was used cells were incubated for 2 hours with the antagonist or 3MP prior to thrombin stimulation to allow time for antagonist to dock with PAR). Cells then had media replaced with thrombin+ PAR reagent and IFN gamma at the dose described. For the PAR2 experiments it was at this point that PAR2 was added. Cells were then incubated for 24 further hours and then analysed by flow cytometry for iNOS. Pure PAR-1 antagonist (αagonist)=FLLRN; Pure PAR-2 agonist=2-Furoyl-LIGRLO-amide; 3-MP=3-mercaptopropionyl-F-Cha-Cha-RKPNDK; All used at 100 microM. Thrombin used at 50 iu
On the technique in general: A flow cytometer gives signals particle by particle.

The subject of data set [2] is Mouse primary smooth muscle cells (SMCs) or endothelial cells (EC). The experiment in a line: In vitro secretion of chemokines by SMC/EC after PAR reagents. Format: cell-based. Further details: secretion of MIF (and CCL-2) compared with PAR-1 agonists / secretion of CX3CL1 (and CCL5) compared with a PAR-1 agonist: dose or concentration left out as unconfirmed. Particulars: for secretion of CX3CL1 (and CCL5) compared with a PAR-1 agonist / secretion of MIF (and CCL-2) compared with PAR-1 agonists: SMC, 12 hour stimulation, 48 hour culture. The protocol:
(§1) In more detail, Mechanistic insights—monocyte recruitment: In vitro secretion of chemokines by PAR-1 and PAR-2 agonists. Mouse primary smooth muscle cells (SMCs) or endothelial cells (EC) at a density of 1×10^6 cells/well of a 24-well plate were serum-starved for 24 hours before addition of FLLRN (PAR-1 […], 10 μM), 2-Furoyl-LIGRLO-Amide (PAR-2 agonist, 10 μM) or 3-MP (3-mercaptopropionyl-F-Cha-Cha-RKPNDK 10 μM) for 12 hours, following which thrombin (10 nM) was added for 1 hour, before a final 48 hours incubation in 2% FCS DMEM. Supernatants of stimulated cells were collected to measure MIF, CCL2, CCL5 and CX3CL1 using ELISA, following manufacturer's protocol.
(§2) FIG. 22: Secretion of MIF and CX3CL1 by SMC after 12 hour stimulation with either a pure PAR-1 agonist, pure PAR-2 agonist, or by 3-mercaptoproprionyl(MP)—F-Cha-Cha-RKPNDK amide, followed by 48 hour culture period. All used at […]. Patterns of secretion of CCL-2 resemble those of MIF, whereas secretion of CCL5 resembles CX3CL1.

In data set [3] the test system is C57BL/6 mice. The experiment in a line: Delayed type hypersensitivity, contact sensitivity to oxazolone (ear swelling). It counts as in vivo, mouse. Particulars: WT mice, reagent at second exposure to oxazolone; for ear swelling: ear thickness 24 hours later. As for the experimental part: C57BL/6 mice were topically sensitised with oxazolone on the shaved abdomen on day 0. Treatment with either saline, PTL060 (10 mg/g), equimolar PTL0GC-1 or equimolar *3-MP was given on day 3 and day 5, the last immediately prior to re-challenge with oxazolone onto the right ear. The left ear was treated with vehicle alone. On day 6, the difference in swelling of the right and left ears was measured and is presented as D mean ear thickness.
This example uses a model of contact hypersensitivity. Here, mice are challenged on the abdomen with the contact sensitizer oxazolone, before a re-challenge […] on both sides of the ear with oxazolone (on the right) or vehicle alone (on the left).
Swelling of the ears, measured with a micrometer, reflects the influx of monocytes/macrophages and T cells in a typical delayed-type hypersensitivity (DTH) response.
FIG. 19: Model of DTH involving contact sensitivity to oxazolone. WT mice were administered a PAR-1 agonist or antagonist at the point of second exposure to oxazolone, before ear thickness was assessed 24 hours later, and mice sacrificed for immunohistological analysis of cross sections of the affected ears, to determine the proportional area occupied by CD68+ cells (macrophages). *p<0.05. **p<0.01. ***p<0.001

The test system of data set [4] is SOCS3. The experiment in a line: SOCS3 expression of macrophages. Format: cell-based. From the text: This is a well-described inhibitor of IFNγ signalling. In the right graph, the thrombin-induced sensitivity to IFNγ, as assessed by change in iNOS expression, is shown.
Data set [5] relates to murine SMC. The experiment in a line: Thrombin-induced secretion of chemokines by SMC with PAR reagents. Format: cell-based, mouse. Details: thrombin-mediated MIF (and CCL-2) secretion / thrombin-mediated CX3CL1 secretion: dose or concentration left out as unconfirmed. Particulars: for thrombin-mediated CX3CL1 secretion / thrombin-mediated MIF (and CCL-2) secretion: SMC, 12 hour; for thrombin-induced secretion of CX3CL1 and CCL5 reduced by: murine SMC, 10 μM, thrombin 10 nM. The protocol: as §1, with “[…] ,” for “following which thrombin (10 nM) was added for 1 hour,”
In more detail, mechanistic insights—monocyte recruitment: In vitro secretion of chemokines by thrombin—differential impact of PAR-1 antagonist and 3-mercaptopropionyl-F-Cha-Cha-RKPNDK. Secretion of chemokines from murine SMC after stimulation with thrombin alone (nil), or in presence of a pure PAR-1 antagonist, or 3-MP*.
as §2
Chemokines measured 48 hours later. Secretion of CCL-2 resembles that of MIF, whereas secretion of CCL5 resembles CX3CL1.

Data set [6] concerns ABCA1. The experiment in a line: ABCA1 expression of macrophages incubated with thrombin. Format: cell-based. As to conditions: titrated in during incubation of macrophages with thrombin. An excerpt: In more detail, mechanistic insights: direct effect on monocyte/macrophage phenotype through SOCS3. To explain how 3-MP inhibits the enhanced sensitivity to IFNγ induced by thrombin.

Data set [7] has as its target T1, PAR2 (Homo sapiens, UniProt P55085).
T1 sequence (P55085 26-397): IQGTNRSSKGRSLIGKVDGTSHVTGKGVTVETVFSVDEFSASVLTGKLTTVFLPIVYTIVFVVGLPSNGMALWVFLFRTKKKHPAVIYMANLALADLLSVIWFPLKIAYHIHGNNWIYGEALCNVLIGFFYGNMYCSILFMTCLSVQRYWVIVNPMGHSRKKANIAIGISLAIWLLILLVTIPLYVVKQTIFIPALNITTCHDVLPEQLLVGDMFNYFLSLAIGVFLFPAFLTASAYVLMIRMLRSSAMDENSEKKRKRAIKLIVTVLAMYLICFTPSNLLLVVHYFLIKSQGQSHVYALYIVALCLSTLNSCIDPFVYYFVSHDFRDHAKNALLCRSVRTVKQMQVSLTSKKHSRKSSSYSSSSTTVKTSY
Particulars: Kawabata et al 1999, page 365; cited from earlier work.

Data set [8] has as its target T2, PAR1 (Homo sapiens, UniProt P25116).
T2 sequence (P25116 22-425): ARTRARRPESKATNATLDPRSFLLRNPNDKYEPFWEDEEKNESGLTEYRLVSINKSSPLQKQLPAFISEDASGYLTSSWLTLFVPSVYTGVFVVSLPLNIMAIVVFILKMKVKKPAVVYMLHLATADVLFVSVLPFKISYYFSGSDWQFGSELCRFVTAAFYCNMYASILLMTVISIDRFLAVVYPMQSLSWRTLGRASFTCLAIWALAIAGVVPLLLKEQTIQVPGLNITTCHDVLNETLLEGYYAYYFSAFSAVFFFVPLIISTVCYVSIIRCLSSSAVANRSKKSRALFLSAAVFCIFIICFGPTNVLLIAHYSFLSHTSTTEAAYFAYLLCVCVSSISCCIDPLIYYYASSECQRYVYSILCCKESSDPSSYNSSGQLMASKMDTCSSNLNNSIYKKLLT
Particulars: Kawabata et al 1999, page 365; cited from earlier work.

For data set [9], the system named is C57BL/6 mice. The experiment in a line: Delayed type hypersensitivity, contact sensitivity to oxazolone (ear swelling). Format: in vivo, mouse. Particulars: 10 microM/g.
Data set [10] has as its target T3, protease activated receptor 1 (PAR-1) (UniProt P30558).
T3 sequence: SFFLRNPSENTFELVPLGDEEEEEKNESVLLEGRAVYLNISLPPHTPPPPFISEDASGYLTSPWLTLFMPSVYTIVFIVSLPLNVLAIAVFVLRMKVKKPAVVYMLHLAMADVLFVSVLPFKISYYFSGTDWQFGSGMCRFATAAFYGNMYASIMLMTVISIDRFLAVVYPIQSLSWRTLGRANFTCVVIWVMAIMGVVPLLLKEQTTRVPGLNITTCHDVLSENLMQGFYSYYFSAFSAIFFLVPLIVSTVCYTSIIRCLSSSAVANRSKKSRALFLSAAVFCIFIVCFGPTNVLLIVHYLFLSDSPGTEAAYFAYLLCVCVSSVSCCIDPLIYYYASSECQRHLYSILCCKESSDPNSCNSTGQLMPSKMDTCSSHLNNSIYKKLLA

In data set [11] the test system is ApoE−/− mice. Particulars: 30-week-old animals; cited from earlier work.

Entries after “also recorded” stand apart in the source; their conditions may differ. [ ]: non-standard residue; d: D form. The star is where a group is joined. Cha = N[C@@H](CC1CCCCC1)C(=O)O; Orn = NCCC[C@H](N)C(=O)O; 2Furoyl = O=C(c1ccco1)*; Mpa = O=C(O)CCS

On to “2-Furoyl-LIGRLO-amide (2Furoyl-LIGRL[Orn]-NH2) [PAR-2 agonist]”, for which the “enhanced sensitivity of macrophages to IFNγ induced by thrombin (iNOS)” value (“enhanced sensitivity of macrophages” for short) in [1] is given as “reduces the sensitivity of macrophages to IFNγ induced by thrombin; also recorded: dampens the enhanced sensitivity”. Also, in data set [2], the “secretion of CX3CL1 (and CCL5) compared with a PAR-1 agonist” value is “stimulated better” and the “secretion of MIF (and CCL-2) compared with PAR-1 agonists” value is on record as “less so”. The “ear swelling” value in [3] is on record as “inhibits”. In data set [4], the “SOCS3 expression” value is listed as “induces SOCS3 expression”.

As to FLLRN [PAR-1 antagonist], the “enhanced sensitivity of macrophages” value in [1] is given as “inhibited”. The “ear swelling” value in [3] is on record as “inhibited”. For the same compound, in [5], the “thrombin-mediated CX3CL1 secretion” value was “inhibited”; the “thrombin-mediated MIF (and CCL-2) secretion” value is “inhibited equally”; the “thrombin-induced secretion of CX3CL1 and CCL5 reduced by” value is 50%.

Take “3-mercaptopropionyl-Phe-Cha-Cha-Arg-Lys-Pro-Asn-Asp-Lys-NH2 ([Mpa]F[Cha][Cha]RKPNDK-NH2; SMILES N=C(N)NCCC[C@H](NC(=O)[C@H](CC1CCCCC1)NC(=O)[C@H](CC1CCCCC1)NC(=O)[C@H](Cc1ccccc1)NC(=O)CCS)C(=O)N[C@@H](CCCCN)C(=O)N1CCC[C@H]1C(=O)N[C@@H](CC(N)=O)C(=O)N[C@@H](CC(=O)O)C(=O)N[C@@H](CCCCN)C(N)=O) [3-MP, parental untailed compound of PTL032 and PTL0GC-1]”: in [1], the “background response of control macrophages to IFNγ” value was “inhibits the background response of control macrophages to IFNγ” and the “enhanced sensitivity of macrophages” value is “more potent than a pure PAR-1 antagonist”. In [2] (10 μM, 12 hours, MIF, CCL2, CCL5, CX3CL1 by ELISA), the “behaviour in chemokine secretion assay” value is on record as “behaves as a pure PAR-2 agonist”. Besides, in [2], the “secretion of CX3CL1 (and CCL5) compared with a PAR-1 agonist” value is on record as “stimulated better” and the “secretion of MIF (and CCL-2) compared with PAR-1 agonists” value is “less so”. Besides, in data set [3], the “infiltration by CD68+ cells compared with both reagents together” value is reported as “inhibits CD68 infiltration better than when both reagents are administered together”; the “ear swelling” value was “inhibits ear swelling and infiltration by CD68+ cells better than when either a pure PAR-1 antagonist or PAR-2 agonist are administered separately”. Moreover, in data set [5], the “thrombin-mediated CX3CL1 secretion” value is “maintained”; the “thrombin-mediated MIF (and CCL-2) secretion” value is given as “inhibited equally”; the “thrombin-induced secretion of CX3CL1 and CCL5 reduced by” value is recorded as 0-10%. In addition, the “SOCS3 expression” value in data set [4] is “induces SOCS3 expression”. For the same compound, the “thrombin-induced ABCA1 expression” value in data set [6] is “inhibits thrombin-induced ABCA1 expression”. Moreover, the “activity at PAR2” value in data set [7] is “agonist”. Further, the “activity at PAR1” value in data set [8] is on record as “antagonist”. Further, in [9], the “monocyte recruitment and phenotype in DTH” value is given as “reduced monocyte recruitment with switched phenotype”.

Consider “FSLLRY-NH2 trifluoroacetate salt [PAR-2 antagonist]”, for which, in [3], the “ear swelling” value is listed as “exacerbates”.

Consider thrombin, for which, in [10], the “MIF and CCL2 production by cultured mouse SMCs after stimulation by thrombin (ELISA)” value is “thrombin-mediated chemokine expression was primarily via PAR-1”.

For `N=C(N)c1ccc(CNC(=O)[C@@H]2CCN2C(=O)[C@H](NCC(=O)O)C2CCCCC2)cc1` [Megalatran], in [11], the “burden of advanced atheromatous lesions” value is “reduced burden of advanced atheromatous lesions”.
